Where two headings read alike, the source gives them in different places.

This experiment has as its target T1, monkey chymase (Macaca fascicularis, UniProt P56435).
T1 construct: chymase was extracted from homogenized monkey cheek pouch and stomach; from tissue; host or cells: monkey cheek pouch and stomach
T1 sequence (P56435 22-247): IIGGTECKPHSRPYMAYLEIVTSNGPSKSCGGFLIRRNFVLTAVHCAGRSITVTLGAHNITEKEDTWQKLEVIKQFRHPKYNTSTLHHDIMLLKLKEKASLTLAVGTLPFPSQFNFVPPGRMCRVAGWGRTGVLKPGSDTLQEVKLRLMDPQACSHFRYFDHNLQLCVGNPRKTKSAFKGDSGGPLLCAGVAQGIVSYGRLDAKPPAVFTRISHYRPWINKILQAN
The experiment in a line: Monkey chymase inhibitory activity (in vitro, angiotensin I substrate). It counts as biochemical. As to conditions: chymase purified from monkey cheek pouch and stomach, substrate angiotensin I, 37° C. The procedure:
The inhibitory activities of the compounds on monkey chymase and human chymase were tested in vitro. The test compounds are as shown by Compound Nos. in Tables 13 and 14.
Preparation of Monkey Chymase
Chymase was purified from monkey cheek pouch and stomach in the following manner.
Briefly, chymase was extracted from homogenized monkey cheek pouch and stomach with 0.01 mol/1000 ml sodium phosphate buffer, pH 7.4, containing 2 mol/1000 ml KCl and 0.1% Nonidet P-40 (Amresco Inc.). The solution containing chymase was applied to a heparin actigel column, and the chymase-rich fractions were collected.
Measurement of Chymase Inhibitory Activity (In Vitro Assay)
Briefly, the purified monkey or human chymase was diluted to an appropriate concentration with 0.01 mol/1000 ml sodium phosphate buffer, pH 7.4, containing 2 mol/1000 ml KCl and 0.1% Nonidet P-40 and used as enzyme solution. Angiotensin I (Peptide Institute Inc.) was diluted with water to 5 mg/ml and used as substrate solution. Test compounds were serially diluted with 10% DMSO. […] After pre-incubation of the mixture at 37° C., 20 μl of the substrate solution was added to the enzyme-test compound mixture and the new mixture was incubated at 37° C. Fifty μl of 30% trichloroacetic acid solution was finally added to stop the enzymatic reaction.
The amount of L-His-L-Leu was measured as angiotensin II produced by the enzymatic reaction. Briefly, 10 μl of the reaction mixture and 10 μl of 1% orthophthalaldehyde solution dissolved in methanol were mixed with 100 μl of 2 mol/1000 ml NaOH and kept at room temperature. The reaction was then stopped by adding 10 μl of 6 mol/1000 ml HCl.

The mark [1] stands for this setting: read-out: Monkey Chymase Inhibition (IC50:nM).

What is called IC50 is the midpoint of a concentration-inhibition curve. In the case of `CC(C)[C@H](NC(=O)c1cccnc1Oc1ccccc1)C(=O)N1CCC[C@H]1C(=O)NC(Cc1csc2ccccc12)C(=O)C(F)(F)F` (stereo partly shown) [I-A-73], the IC50 under setting [1] amounted to 300 nM. `Cc1nc2c(C(=O)N[C@H](C(=O)N3CCC[C@H]3C(=O)NC(Cc3csc4ccccc34)C(=O)C(F)(F)F)C(C)C)cccc2o1` (stereo partly shown) [I-A-60]: the half-inhibitory concentration (IC50) under setting [1] is 430 nM. Same read-out and setting: the same measure for `Cc1nsc(C)c1C(=O)N[C@H](C(=O)N1CCC[C@H]1C(=O)NC(Cc1cc2ccccc2s1)C(=O)C(F)(F)F)C(C)C` (stereo partly shown) [I-A-94]: 15 nM; for `Cc1noc(C)c1C(=O)N[C@H](C(=O)N1CCC[C@H]1C(=O)NC(CC1CCCCC1)C(=O)C(F)(F)F)C(C)C` (stereo partly shown) [I-A-16]: 110 nM; for `CC(C)[C@H](NC(=O)c1nsc(Cl)c1Cl)C(=O)N1CCC[C@H]1C(=O)NC(Cc1csc2ccccc12)C(=O)C(F)(F)F` (stereo partly shown) [I-A-75]: 380 nM. Still for that read-out and setting: the same measure for `CC(C)[C@H](NC(=O)c1onc2cccnc12)C(=O)N1CCC[C@H]1C(=O)NC(Cc1csc2ccccc12)C(=O)C(F)(F)F` (stereo partly shown) [I-A-71]: 140 nM.

As to `Cc1noc(C)c1C(=O)N[C@H](C(=O)N1CCC[C@H]1C(=O)NC(Cc1ccccc1Cl)C(=O)C(F)(F)F)C(C)C` (stereo partly shown) [I-A-39], the 50% inhibitory concentration (IC50) under setting [1] worked out at 120 nM. The same measure, in the same setting: the same measure for `CC(C)[C@H](NC(=O)c1noc2ccccc12)C(=O)N1CCC[C@H]1C(=O)NC(Cc1csc2ccccc12)C(=O)C(F)(F)F` (stereo partly shown) [I-A-58]: 210 nM; for `Cc1snnc1C(=O)N[C@H](C(=O)N1CCC[C@H]1C(=O)NC(Cc1cc2ccccc2s1)C(=O)C(F)(F)F)C(C)C` (stereo partly shown) [I-A-99]: 83 nM. Still for that read-out and setting: the figure for `CC(C)[C@H](NC(=O)Cn1ccc(=O)n(CC(=O)OC(C)(C)C)c1=O)C(=O)N1CCC[C@H]1C(=O)NC(Cc1ccc(Cl)cc1)C(=O)C(F)(F)F` (stereo partly shown) [I-A-90] is 280 nM; for `CC(C)[C@H](NC(=O)c1cccs1)C(=O)N1CCC[C@H]1C(=O)NC(Cc1csc2ccccc12)C(=O)C(F)(F)F` (stereo partly shown) [I-A-70] it is 140 nM. As for `Cc1noc(C)c1C(=O)N[C@H](C(=O)N1CCC[C@H]1C(=O)NC(Cc1cc2ccccc2s1)C(=O)C(F)(F)F)C(C)C` (stereo partly shown) [I-A-98], the IC50 under setting [1] turned out to be 63 nM. With `Cc1noc(C)c1C(=O)N[C@H](C(=O)N1CCC[C@H]1C(=O)NC(Cc1ccccc1C(F)(F)F)C(=O)C(F)(F)F)C(C)C` (stereo partly shown) [I-A-46], the IC50 under setting [1] came out at 170 nM. Still for that read-out and setting: the figure for `Cc1nnsc1C(=O)N[C@H](C(=O)N1CCC[C@H]1C(=O)NC(Cc1ccc2c(c1)CCC2)C(=O)C(F)(F)F)C(C)C` (stereo partly shown) [I-A-24] is 150 nM; for `CC(C)[C@H](NC(=O)c1snnc1-c1ccccc1)C(=O)N1CCC[C@H]1C(=O)NC(Cc1csc2ccccc12)C(=O)C(F)(F)F` (stereo partly shown) [I-A-68] it is 27 nM.

Consider `CC(C)(C)OC(=O)Cn1c(=O)ccn(CC(=O)N[C@@H](CC2CCCCC2)C(=O)N2CCC[C@H]2C(=O)NC(Cc2ccccc2)C(=O)C(F)(F)F)c1=O` (stereo partly shown) [I-A-92], for which the IC50 under setting [1] is 860 nM. With `Cc1noc(C)c1C(=O)N[C@H](C(=O)N1CCC[C@H]1C(=O)NC(Cc1ccc(Cl)cc1)C(=O)C(F)(F)F)C(C)C` (stereo partly shown) [I-A-43], the IC50 under setting [1] turned out to be 140 nM. Same read-out and setting: the same measure for `Cc1noc(C)c1C(=O)N[C@H](C(=O)N1CCC[C@H]1C(=O)NC(Cc1ccccc1)C(=O)C(F)(F)F)C(C)C` (stereo partly shown) [I-A-26]: 44 nM; for `Cc1cccc(CC(NC(=O)[C@@H]2CCCN2C(=O)[C@@H](NC(=O)c2c(C)noc2C)C(C)C)C(=O)C(F)(F)F)c1` (stereo partly shown) [I-A-40]: 120 nM; for `Cc1ccccc1CC(NC(=O)[C@@H]1CCCN1C(=O)[C@@H](NC(=O)c1c(C)noc1C)C(C)C)C(=O)C(F)(F)F` (stereo partly shown) [I-A-33]: 73 nM. Take `CC(C)[C@H](NC(=O)c1ccccn1)C(=O)N1CCC[C@H]1C(=O)NC(Cc1csc2ccccc12)C(=O)C(F)(F)F` (stereo partly shown) [I-A-67]: under setting [1], the IC50 was found to be 94 nM. For the molecule `Cc1noc(C)c1C(=O)N[C@H](C(=O)N1CCC[C@H]1C(=O)NC(Cc1ccc(F)cc1)C(=O)C(F)(F)F)C(C)C` (stereo partly shown) [I-A-30], under setting [1], the 50% inhibitory concentration (IC50) came out at 65 nM. The same measure, in the same setting: the same measure for `Cc1ccc(CC(NC(=O)[C@@H]2CCCN2C(=O)[C@@H](NC(=O)c2c(C)noc2C)C(C)C)C(=O)C(F)(F)F)cc1` (stereo partly shown) [I-A-35]: 80 nM.

Consider `Cc1noc(C)c1C(=O)N[C@H](C(=O)N1CCC[C@H]1C(=O)NC(Cc1coc2ccccc12)C(=O)C(F)(F)F)C(C)C` (stereo partly shown) [I-A-9], for which the concentration for half-maximal inhibition (IC50) under setting [1] amounted to 61 nM. `Cc1noc(C)c1C(=O)N[C@H](C(=O)N1CCC[C@H]1C(=O)NC(Cc1csc2ccccc12)C(=O)C(F)(F)F)C1CCCCC1` (stereo partly shown) [I-A-6]: the 50% inhibitory concentration (IC50) under setting [1] is 33 nM. The same measure, in the same setting: the figure for `Cc1noc(C)c1C(=O)N[C@H](C(=O)N1CCC[C@H]1C(=O)NC(Cc1ccc(O)cc1)C(=O)C(F)(F)F)C(C)C` (stereo partly shown) [I-A-28] is 54 nM; for `Cc1noc(C)c1C(=O)N[C@@H](Cc1ccccc1)C(=O)N1CCC[C@H]1C(=O)NC(Cc1ccccc1)C(=O)C(F)(F)F` (stereo partly shown) [I-A-14] it is 59 nM. Regarding `CC[C@H](NC(=O)c1snnc1C)C(=O)N1CCC[C@H]1C(=O)NC(Cc1csc2ccccc12)C(=O)C(F)(F)F` (stereo partly shown) [I-A-21], under setting [1], the half-inhibitory concentration (IC50) was found to be 19 nM. For the molecule `CC(C)[C@H](NC(=O)c1onc2ccccc12)C(=O)N1CCC[C@H]1C(=O)NC(Cc1csc2ccccc12)C(=O)C(F)(F)F` (stereo partly shown) [I-A-59], the half-maximal inhibitory concentration (IC50) under setting [1] came to 250 nM. In the case of `Cc1onc(-c2ccccc2)c1C(=O)N[C@H](C(=O)N1CCC[C@H]1C(=O)NC(Cc1csc2ccccc12)C(=O)C(F)(F)F)C(C)C` (stereo partly shown) [I-A-7], the IC50 under setting [1] was determined as 34 nM. The same measure, in the same setting: the figure for `Cc1nc(C)c(C(=O)N[C@H](C(=O)N2CCC[C@H]2C(=O)NC(Cc2csc3ccccc23)C(=O)C(F)(F)F)C(C)C)o1` (stereo partly shown) [I-A-69] is 98 nM; for `COc1ccc(CC(NC(=O)[C@@H]2CCCN2C(=O)[C@@H](NC(=O)c2c(C)noc2C)C(C)C)C(=O)C(F)(F)F)cc1` (stereo partly shown) [I-A-37] it is 95 nM. For the molecule `Cc1noc(C)c1C(=O)N[C@H](C(=O)N1CCC[C@H]1C(=O)NC(Cc1c[nH]c2ccccc12)C(=O)C(F)(F)F)C(C)C` (stereo partly shown) [I-A-10], the half-inhibitory concentration (IC50) under setting [1] worked out at 77 nM.

For the molecule `CC(C)[C@H](NC(=O)c1ccsc1)C(=O)N1CCC[C@H]1C(=O)NC(Cc1csc2ccccc12)C(=O)C(F)(F)F` (stereo partly shown) [I-A-72], under setting [1], the concentration for half-maximal inhibition (IC50) came to 160 nM. Take `O=C(O)Cn1c(=O)ccn(CC(=O)N[C@@H](CC2CCCCC2)C(=O)N2CCC[C@H]2C(=O)NC(Cc2ccccc2)C(=O)C(F)(F)F)c1=O` (stereo partly shown) [I-A-91]: the IC50 under setting [1] was found to be 150 nM. Consider `CC(C)[C@H](NC(=O)CN1CCN(CC(=O)OC(C)(C)C)C1=O)C(=O)N1CCC[C@H]1C(=O)NC(Cc1cc2ccccc2s1)C(=O)C(F)(F)F` (stereo partly shown) [I-A-86], for which the IC50 under setting [1] was determined as 210 nM. As to `Cc1noc(C)c1C(=O)N[C@H](C(=O)N1CCC[C@H]1C(=O)NC(Cc1ccc2c(c1)CCC2)C(=O)C(F)(F)F)C(C)C` (stereo partly shown) [I-A-18], the IC50 under setting [1] stood at 220 nM. Still for that read-out and setting: the figure for `Cc1noc(C)c1C(=O)N[C@H](C(=O)N1CCC[C@H]1C(=O)NC(Cc1cccs1)C(=O)C(F)(F)F)C(C)C` (stereo partly shown) [I-A-17] is 140 nM. Same read-out and setting: the same measure for `Cc1noc(C)c1C(=O)N[C@H](C(=O)N1CCC[C@H]1C(=O)NC(Cc1cccc2ccccc12)C(=O)C(F)(F)F)C(C)C` (stereo partly shown) [I-A-15]: 82 nM. Still for that read-out and setting: the figure for `CC(C)[C@H](NC(=O)c1ccnc2ccccc12)C(=O)N1CCC[C@H]1C(=O)NC(Cc1csc2ccccc12)C(=O)C(F)(F)F` (stereo partly shown) [I-A-56] is 47 nM; for `CC(C)[C@H](NC(=O)Cn1ccc(=O)n(CC(=O)O)c1=O)C(=O)N1CCC[C@H]1C(=O)NC(Cc1ccccc1)C(=O)C(F)(F)F` (stereo partly shown) [I-A-88] it is 68 nM; for `CC(C)[C@H](NC(=O)Cn1ccc(=O)n(CC(=O)O)c1=O)C(=O)N1CCC[C@H]1C(=O)NC(Cc1ccc(Cl)cc1)C(=O)C(F)(F)F` (stereo partly shown) [I-A-89] it is 150 nM. For the molecule `Cc1nsc(C(=O)N[C@H](C(=O)N2CCC[C@H]2C(=O)NC(Cc2cc3ccccc3s2)C(=O)C(F)(F)F)C(C)C)n1` (stereo partly shown) [I-A-100], the IC50 under setting [1] came to 260 nM. On the same count and under the same terms, the figure for `CC(C)[C@H](NC(=O)CN1CCN(CC(=O)OC(C)(C)C)C1=O)C(=O)N1CCC[C@H]1C(=O)NC(Cc1ccc2ccccc2c1)C(=O)C(F)(F)F` (stereo partly shown) [I-A-84] is 190 nM. On to `CC(C)[C@H](NC(=O)c1ccncc1)C(=O)N1CCC[C@H]1C(=O)NC(Cc1csc2ccccc12)C(=O)C(F)(F)F` (stereo partly shown) [I-A-66], for which it took 49 nM to reach half-maximal inhibition (Monkey Chymase Inhibition (IC50:nM)) (IC50).

Regarding `Cc1nnsc1C(=O)N[C@H](C(=O)N1CCC[C@H]1C(=O)NC(Cc1ccc2ccccc2c1)C(=O)C(F)(F)F)C(C)C` (stereo partly shown) [I-A-22], the IC50 under setting [1] was 37 nM. Same read-out and setting: the same measure for `Cc1cn(CC(=O)N[C@H](C(=O)N2CCC[C@H]2C(=O)NC(Cc2cc3ccccc3s2)C(=O)C(F)(F)F)C(C)C)c(=O)n(Cc2ccccc2)c1=O` (stereo partly shown) [I-A-93]: 200 nM. Still for that read-out and setting: the figure for `CC[C@H](NC(=O)c1snnc1C)C(=O)N1CCC[C@H]1C(=O)NC(Cc1ccc2ccccc2c1)C(=O)C(F)(F)F` (stereo partly shown) [I-A-23] is 50 nM; for `CC(C)[C@H](NC(=O)CN1CCN(Cc2ccccc2)C1=O)C(=O)N1CCC[C@H]1C(=O)NC(Cc1cc2ccccc2s1)C(=O)C(F)(F)F` (stereo partly shown) [I-A-87] it is 250 nM.

These data come from patent US6852744B2, “Pyrrolidine derivatives and their use as chymase inhibitor” (Dainippon Pharmaceutical Co., Ltd., priority 2000, dated 2005).
